What was measured:
[1] = system: Chikungunya Virus (CHIKV) strain LR2006-OPY1 with GFP modification (CHIK 5'LR); assay: microbe, parasite or virus in culture; type: cell-based; conditions: HEK-293T, infected HEK293T cells; for inhibition at 1 µM: compounds at 1 μM, MOI 0.1, 22 h, mean of 2 experiments, values above 100 lowered to 100, read-out: % CHIKV Inhibition Mean (n = 2); for IC50: second round of experiments, range stated for listed compounds, read-out: IC50 (CHIKV inhibition)
Protocol: The ability of the compounds to inhibit viral replication was assessed with an experiment in which infected cells were treated by compounds of formula (Ie) at 1 μM. As a positive control for inhibition of Chikungunya, Ribavirin was used. Toxicity of the compounds was assessed in parallel.
Human embryonic kidney cells 293T (HEK293T, CRL-11268) were maintained in Dulbecco's modified Eagle's Medium (DMEM, 31966-021, Thermo Fisher Scientific) supplemented with 10% of fetal bovine serum (FBS), penicillin and streptomycin. After removal of the medium, cells were washed with Ca^2+ and Mg^2+-free salt solution to remove all traces of serum. After aspiration of wash solution, cells were dissociated with 0.25% Trypsin-EDTA solution and incubated 30 s at least in 37° C. incubator. Concentration of cell suspension was determined by an automatic cell counter (EVE, NanoEntek) and, if needed, adjusted to 0.33×10^6 cells/mL with DMEM medium supplemented with 10% FBS.
100 μL of the cell suspension were dispatched in a ViewPlate-96 Black (6005182, PerkinElmer) and in a transparent 96-well cell culture plate (655180, Greiner bio-one). After an incubation for 24 h at 37° C. under 5% of CO2, compounds were added at the proper concentration.
An intermediate dilution was prepared with DMSO (D8418, Sigma) at 2 mM in a 96-well V-bottom microplate from the stock solution:
Mix 1 μL of the 50 mM stock library in 25 μL of DMSO.
Mix 2 μL of the 25 mM stock library in 25 μL of DMSO.
An intermediate dilution was prepared with DMSO (D8418, Sigma) at 25 mM in a 96-well V-bottom microplate from the stock solution:
Mix 2 μL of the 50 mM stock library in 2 μL of DMSO.
Perform serial dilution in 2 μL of DMSO 13 times to reach 0.0015 mM. Proceed as follows in table III:
For both screen and determination of IC50, 1 μL of each solution was added in a 1 mL Masterblock 96 wells (Greiner bio-one, 780261) containing 1 mL of DMEM medium. As a positive control, 5 μL of a 80 mM Ribavirin solution (R9644, Sigma) is added to 1 mL of DMEM. On the other hand, DMSO is used as a negative control.
[…]. Vector Borne Zoonotic Dis. 2006; 6(4)). This modified virus was used to infect cells at MOI 0.1. […].
Medium was removed after 22 h at 37° C. under 5% of CO2 and cells were washed as described above. 60 μL of RIPA buffer (50 mM Tris-HCl pH8, 100 mM NaCl, 1 mM MgCl2, 1% Triton X-100) was added to cells and incubated for at least 20 min before reading fluorescence signal. Pierce 660 nm Protein Assay Reagent (22660, Thermo scientific) was used to normalize fluorescence signal by protein quantity.
• A first round of experiments has been performed wherein the results are expressed as inhibition percentage, which is calculated as follows, through the following steps: • 1. Fluorescence intensity (FI)/Absorbance 660 nm (A660)=A
This ratio allows considering the infection (GFP virus) to the protein amount. • 2. A′=A−background noise of non-infected plate, • 3. B=Fluorescence intensity (FI)/Absorbance 660 nm (A660) of infected but non treated plates, • 4. C=A′/B, which is then converted as the percentage of infection after treatment, compared to non-treated sample, and subsequently as the infection percentage. For instance, a value of 100 in Table IV here below means that, after treatment, the signal attributed to GFP fluorescence is abolished, which is correlated to the absence of infection. • 5. C′=100−C
This value corresponds to the inhibition's percentage.
The following Table IV encompasses said C′ value for some compounds, as calculated above with a mean of 2 experiments, and corresponding standard deviation.
Some values were originally above 100. In these cases, the value has been lowered to 100. This means that some molecules also have an impact on the viability of the cells. In other words, the A value may be lower than the background noise.
Moreover, for each measure, the test was performed with Ribavirin as control. The value of the inhibition percentage was checked, giving 100%.

DENV-2 strain 16681 = assay: DENV-2 inhibition (cytopathic effect inhibition) using Viral ToxGlo assay in A549 cells; type: cell-based, Dengue 2 virus; conditions: Dengue virus, DENV2, 120 h, compounds at 10 μM, MOI 0.5, 5 days p.i., read-out: % DENV-2 Inhibition Mean (n = 3)
Protocol: Protocol for Screening Antiviral Compounds for DENV-2 Inhibition and Cytotoxicity Using Viral ToxGlo Assay
A549 cells were maintained in Dulbecco's Modified Eagle Medium (DMEM) supplemented with 10% fetal bovine serum, 100 U/ml penicillin and 100 μg/ml streptomycin. For the purposes of the screening assay they were grown to 90% confluency, trypsinized and recovered. The trypsin was neutralised with cell culture media and cells were centrifuged at 150×g for 5 minutes before discarding the supernatant and resuspending cell pellet in assay media (DMEM supplemented with 2% fetal bovine serum and 100 U/ml penicillin and 100 μg/ml streptomycin). The cells were seeded into 96-well white clear-bottomed cell culture plates at a density of 1.0×10^4 cells/well in 50 μl. For the media/background control column assay media only was added. Cell plates were placed in a humid chamber and incubated overnight at 37° C./5% CO2. After overnight incubation cells were checked for confluency and healthy appearance.
Test compounds were prepared at a final concentration of 10 μM in a maximum DMSO concentration of 1% (final assay concentration maximal 0.1% DMSO) and added to the cell plates in volumes of 10 μl. For cell control and virus control wells the test article solvent only was added. As a positive inhibition control, 7-Deaza-2′-C-methyladenosine was added at 100 μM in 3 wells. Virus (DENV-2 strain 16681) or assay media for cytotoxicity test wells and media/cell control wells was added immediately after test articles at an MOI of 0.5, 40 for 96 well plates respectively. Virus suspension was prepared by thawing DENV-2 frozen stocks and diluting to the required concentration of plaque forming units in assay media.
Cell plates were further incubated inside a humid chamber for 5 days p.i at 37° C./5% CO2. After the incubation period cells were observed under the microscope to check for characteristic cytopathic effect in virus control wells and healthy cells in the cell control wells. After plates were adjusted to room temperature 20 μl Viral ToxGlo (Promega) was added to each well of the 96-well cell plates. Plates were incubated at room temperature for 5 minutes before measuring the luminescence on a spectrophotometer (Envision, PerkinElmer).
DENV-2 inhibition was calculated as percentage of cytopathic effect inhibition relative to the virus control and cytotoxicity as percentage of cell survival relative to cell control wells.

RSV A2 = assay: RSV inhibition (cytopathic effect inhibition) using Viral ToxGlo assay in HEp-2 cells; type: cell-based; conditions: human respiratory syncytial virus, RSV A2, MOI 0.5, HEp-2 cells, 72 h p.i.
Summary of the method: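 HEp-2 cells in EMEM with 2% FBS were infected with RSV A2 at MOI 0.5 immediately after compound (≤1% DMSO) and incubated 72 h at 37 °C. Viral ToxGlo luminescence gave % cytopathic effect inhibition versus virus control, plus cytotoxicity versus cell control; EC50 derived from dose-response.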

SMILES | inhibition at 1 µM [1] [%] | inhibition at 10 µM (DENV-2 strain 16681) [%] | IC50 [1] [nM] | EC50 (RSV A2) [nM]
CC(C)CCNC(=O)c1cccc(Nc2ccc(OCc3ccccn3)cc2)c1 [Compound 37, N-isopentyl-3-((4-(pyridin-2-ylmethoxy)phenyl)amino)benzamide] | 100 | – | – | –
c1ccc(COc2ccc(Nc3cccc(OCCCC4CCCC4)c3)cc2)nc1 [Compound 73, 3-(3-cyclopentylpropoxy)-N-(4-(pyridin-2-ylmethoxy)phenyl)aniline] | 100 | – | – | –
Cc1cc(Nc2cccc(C(=O)NCCC3CCCC3)c2)ccc1OCc1ccccn1 [Compound 40, N-(2-cyclopentylethyl)-3-((3-methyl-4-(pyridin-2-ylmethoxy)phenyl)amino)benzamide] | 99 | 71 | – | –
Cc1cc(OCc2ccccn2)ccc1Nc1cccc(C(=O)NC2CCCC2)c1 [Compound 71, N-cyclopentyl-3-((2-methyl-4-(pyridin-2-ylmethoxy)phenyl)amino)benzamide] | – | – | 1 to 400 | 185
O=C(NCCC1CCCC1)c1cccc(Nc2ccc(OCc3ccccc3)cc2)c1 [Compound 52, 3-((4-(benzyloxy)phenyl)amino)-N-(2-cyclopentylethyl)benzamide] | 99 | – | – | –
O=C(NCCC1CCCC1)c1cccc(Nc2ccc(OCc3ccccc3F)cc2)c1 [Compound 50, N-(2-cyclopentylethyl)-3-((4-((2-fluorobenzyl)oxy)phenyl)amino)benzamide] | 100 | – | – | –
O=C(NCCC1CC1)c1cccc(Nc2ccc(OCc3ccccn3)cc2)c1 [Compound 49, N-(2-cyclopropylethyl)-3-((4-(pyridin-2-ylmethoxy)phenyl)amino)benzamide] | 98 | 111 | – | –
N#Cc1ccccc1COc1ccc(Nc2cccc(C(=O)NCCC3CCCC3)c2)cc1 [Compound 51, 3-((4-((2-cyanobenzyl)oxy)phenyl)amino)-N-(2-cyclopentylethyl)benzamide] | 100 | – | – | –
Cc1cc(OCc2ccccn2)ccc1Nc1cccc(C(=O)NCCC2CC(F)(F)C2)c1 [Compound 70, N-(2-(3,3-difluorocyclobutyl)ethyl)-3-((2-methyl-4-(pyridin-2-ylmethoxy)phenyl)amino)benzamide] | – | – | 1 to 400 | 660
O=C(NCCC1CCCC1)c1cccc(Nc2ccc(OCc3ccccn3)c(O)c2)c1 [Compound 53, N-(2-cyclopentylethyl)-3-((3-hydroxy-4-(pyridin-2-ylmethoxy)phenyl)amino)benzamide] | – | – | 1 to 400 | –
Cc1cc(OCc2ccccn2)ccc1Nc1cccc(C(=O)NCCC2CCCCC2)c1 [Compound 47, N-(2-cyclohexylethyl)-3-((2-methyl-4-(pyridin-2-ylmethoxy)phenyl)amino)benzamide] | 96 | – | – | 182
Cc1cc(OCc2ccccn2)ccc1Nc1cccc(C(=O)NCCC2CCCC2)c1 [Compound 39, N-(2-cyclopentylethyl)-3-((2-methyl-4-(pyridin-2-ylmethoxy)phenyl)amino)benzamide] | 98 | – | – | 185
CCc1cc(OCc2ccccn2)ccc1Nc1cccc(C(=O)NCCC2CCCC2)c1 [Compound 58, N-(2-cyclopentylethyl)-3-((2-ethyl-4-(pyridin-2-ylmethoxy)phenyl)amino)benzamide] | – | – | 1 to 400 | –
Cc1cc(OCc2ccccn2)ccc1Nc1cccc(C(=O)NCCC(C)C)c1 [Compound 54, N-isopentyl-3-((2-methyl-4-(pyridin-2-ylmethoxy)phenyl)amino)benzamide] | – | – | 1 to 400 | 177
CCc1cc(OCc2ccccn2)ccc1Nc1cccc(C(=O)NCCC(C)C)c1 [Compound 57, 3-((2-ethyl-4-(pyridin-2-ylmethoxy)phenyl)amino)-N-isopentylbenzamide] | – | – | 1 to 400 | 26
O=C(NCCC1CCCC1)c1cccc(Nc2ccc(OCc3ccccn3)cc2)c1 [Compound 36, N-(2-cyclopentylethyl)-3-((4-(pyridin-2-ylmethoxy)phenyl)amino)benzamide] | 99 | – | – | 232
O=C(NCCC1CCCC1)c1cccc(Nc2ccc(OCc3ccccn3)nc2)c1 [Compound 41, N-(2-cyclopentylethyl)-3-((6-(pyridin-2-ylmethoxy)pyridin-3-yl)amino)benzamide] | 99 | – | – | –
COc1cc(Nc2cccc(C(=O)NCCC3CCCC3)c2)ccc1OCc1ccccn1 [Compound 43, N-(2-cyclopentylethyl)-3-((3-methoxy-4-(pyridin-2-ylmethoxy)phenyl)amino)benzamide] | 100 | 71 | – | –
O=C(NCCC1CCC1)c1cccc(Nc2ccc(OCc3ccccn3)cc2)c1 [Compound 48, N-(2-cyclobutylethyl)-3-((4-(pyridin-2-ylmethoxy)phenyl)amino)benzamide] | 98 | 110 | – | –

Source: patent US12421206B2, “Aryl-n-aryl derivatives for treating a RNA virus infection” (ABIVAX, priority 2018, dated 2025)
